Reference: patent US7659277B2, “Ubiquitin ligase inhibitors and methods related thereto” (Proteologies, Ltd., priority 2003, dated 2010)
Like-named read-outs stand apart in the source and are kept apart here.

Legend:
[1] = target: Hmdm2 (Homo sapiens, UniProt Q00987); assay: Selectivity (% A in 1 μM), ubiquitin ligase activity of Hmdm2; type: biochemical; conditions: read-out: Selectivity (% A* in 1 μM) Hmdm2
[2] = target: T1, POSH (Homo sapiens, UniProt Q7Z6J0); assay: IC50 assay procedure: GST-POSH auto-ubiquitination, homogeneous time-resolved fluorescence (Ub-cryptate / anti-GST XL665); type: biochemical; conditions: ubiquitin ligase activity of POSH; GST-POSH 33 nM, 30 min preincubation
T1 construct: GST-POSH lot NB81/p.118 3.6 mg/ml; fused on or other part: GST tag, used for detection with anti-GST XL665
T1 sequence (Q7Z6J0 1-269 limits assumed): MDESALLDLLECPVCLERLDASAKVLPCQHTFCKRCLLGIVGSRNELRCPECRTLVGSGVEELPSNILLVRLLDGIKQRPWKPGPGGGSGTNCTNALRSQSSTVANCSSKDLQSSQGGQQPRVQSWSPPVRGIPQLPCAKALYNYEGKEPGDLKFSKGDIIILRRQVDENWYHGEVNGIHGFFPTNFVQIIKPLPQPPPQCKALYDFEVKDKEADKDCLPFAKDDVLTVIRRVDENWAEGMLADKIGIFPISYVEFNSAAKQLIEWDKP
Description: In certain preferred embodiments, agents that inhibit (or promote) the ubiquitin ligase activity of a ubiquitin ligase, such as POSH, may be identified using a homogenous time resolved fluorescence assay. Such an assay may employ a GST fused to the RING subunit of a ubiquitin ligase (e.g. POSH). Two flurophore-conjugated detection reagents are also used: anti-GSTXL665 and europium cryptate labeled ubiqutin. The ubiqutination of the ubiquitin ligase by ubiqutin cryptate and binding of the anti-GST tagged XL665 brings the fluorophores into close proximity allowing FRET reaction to occur. Accordingly, FRET serves as a measurement of ubiquitination of the ubiquitin ligase. An enzymatic system may be set up to provide activated ubiquitin, e.g., by providing ubiquitin, an E1 and an E2. Compounds that will not allow the FRET reaction are considered to be inhibitors.
Step 3: establish IC 50 value measurements.
Experimental Protocols: 1. HTS Screening Assay Procedure • Microplates 10109D to 10114D compounds at 1 mM. • (Controls in column 1). • All compounds were perchase from ChemBridge corporation: ChemBridge corporation 16981 Via Tazon, Suite G San Diego, Calif. 92127 a. Microplates Labeling • Put labels to 6 PS U-bottom clear microplate. • Put labels to 18 black microplates (triplicats). b. Microplates Preparation • Put 100 μl GST-POSH at 33 nM in wells of the clear PS U-bottom microplates (exept wells A1-D1). • Negative control: place 100 μl dH2O in wells A1-D1. • (Positive control: place 100 μl GST-POSH at 33 nM in wells E1-H1). • Put 8 μl enzymes solution ×4 to black microplates (column 1 to 11). c. Incubation of E3 with Compounds • Transfer 5 μl of compounds (at 1 mM) to the microplates containing 100 μl GST-POSH. • Add 5 μl of DMSO to controls column 1. • Incubation 30 minutes at RT. d. Enzymatic (Ubiquitination) and Final Steps • Distribution of (triplicate) 3×23 μl incubated compounds into 3 black microplates containing enzymatic solution (on splitting apparatus). • Incubation 30 minutes at 37° C. • Addition of 8 μl EDTA 0.5 M. • Incubation 15 (at least) minutes at RT. • Addition of 30 μl GST XL 665 in reconstitution buffer. • Incubation 45 (at least) minutes at RT. • Reading fluorescence. • Record results in computer. • Put sealing foil back on original and diluted microplates and keep at −70° C. • Always the plates must be closed with lids during each step. 2. […] Microplates Labeling • Put labels to 4 clear PP clear microplate (18.2 μM, 9.1 uM, 1.82 uM, 910 nM,). • Put labels to 5 clear PS U-bottom clear microplate 4.44 μM, 909, 444, 91 and 44 nM) • Put labels to 15 black microplates (triplicates). f. Original Microplate Dilutions • Put DMSO 40 μl to (18.2 μM, 1.82 uM plates) and 20 ul to (9.1 uM, 910 nM plates. • Mix by pipetation the original microplate (3× up and down 45 μl). • Transfer 10 μl of compounds from the original microplate (at 91 μM) to the next microplate (=18.2 μM) on splitting apparatus. • Mix by pipetation the 18.2 uM microplate (3× up and down 45 μl). • Transfer 20 μl of compounds from the 18.2 uM microplate to the next microplate (=9.1 μM) on splitting apparatus. • Mix by pipetation the 9.1 uM microplate (3× up and down 45 μl). • Transfer 10 μl of compounds from the 9.1 uM microplate to the next microplate (=1.82 μM) on splitting apparatus. • Mix by pipetation the 1.82 uM microplate (3× up and down 45 μl). • Transfer 20 μl of compounds from the 1.82 uM microplate to the next microplate (=910 nM) on splitting apparatus • Mix by pipetation. g. Microplates Preparation • Put 123 μl GST-POSH at 33 nM in wells of the 5 clear PS U-bottom clear microplates. • Positive control: place 123 μl GST-POSH at 33 nM in well A12-h12 13 μl DMSO. • Negative control: place 123 μl dH2O in well B1 and 13 μl DMSO. • Put 8 μl enzymes solution ×4 to 15 black microplates. • Controls: put 8 μl enzymes solution ×4 to wells A1 to F1. h. […]

[3] = % activity at 1 μM compound, control is related to 100% activity, HTS protocol

Chain of Hmdm2 (Q00987 whole entry): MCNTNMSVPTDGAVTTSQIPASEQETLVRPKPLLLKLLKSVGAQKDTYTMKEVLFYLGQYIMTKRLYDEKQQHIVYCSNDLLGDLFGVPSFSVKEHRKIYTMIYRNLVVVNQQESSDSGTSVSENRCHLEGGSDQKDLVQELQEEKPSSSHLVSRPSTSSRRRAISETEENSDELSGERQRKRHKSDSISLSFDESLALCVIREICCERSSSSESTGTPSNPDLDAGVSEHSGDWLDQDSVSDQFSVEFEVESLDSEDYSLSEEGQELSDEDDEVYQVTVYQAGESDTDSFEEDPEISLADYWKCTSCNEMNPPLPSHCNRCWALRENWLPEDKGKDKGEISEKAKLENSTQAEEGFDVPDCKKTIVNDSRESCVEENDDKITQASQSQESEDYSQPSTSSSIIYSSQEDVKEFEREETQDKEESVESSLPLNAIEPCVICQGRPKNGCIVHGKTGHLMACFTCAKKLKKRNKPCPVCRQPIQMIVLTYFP

Row | SMILES | remaining activity at 1 µM [1] | IC50 [2] | remaining activity at 1 µM [1, 3]
1 | S=C(c1ccc(-c2cc(Cl)ccc2Cl)o1)N1CCCCC1 [Compound 35] | 101% | 500 nM | –
2 | CC(C)Oc1ccc(/C=C2/SC(=S)NC2=O)cc1 [Compound 26] | – | 3000 nM | 98%
3 | CN(C)c1ccc(/C=C2\C(=O)N(c3ccc([N+](=O)[O-])cc3)N=C2N2CCOCC2)cc1 [Compound 42] | 111% | 5000 nM | –
4 | Oc1c(Cl)cc(Cl)cc1/C=N/c1ccc(-c2nc3ccccc3[nH]2)cc1 [Compound 63] | – | 600 nM | 102%
5 | O=c1/c(=C/c2ccc(N3CCOCC3)cc2)sc2nc3ccccc3n12 [Compound 32] | 141% | 500 nM | –
6 | Cc1ccc(/C=N/c2ccc(C(N)=O)cc2)o1 [Compound 73] | – | 1500 nM | 96%
7 | COc1cc(C=C2C(=O)N(C)C(=S)N(C)C2=O)ccc1O [Compound 9] | – | 10000 nM | 103%
8 | CCCCOc1ccc(NC(=S)N2CCn3c4c(c(=O)c5cc(C)ccc53)CCC42)cc1 (centres unmarked) [Compound 81] | 73% | 100 nM | –
9 | Oc1ccc(/N=C/c2cccs2)cc1-c1nc2ccccc2s1 [Compound 71] | – | 800 nM | 78%
10 | CN(C)c1ccc(/C=C2\SC(=S)N(C3CCS(=O)(=O)C3)C2=O)cc1 (centres unmarked) [Compound 110] | 51% | 600 nM | –
11 | O=c1oc2cc(O)ccc2cc1-c1csc(-c2ccc(Cl)cc2)n1 [Compound 40] | – | 1000 nM | 159%
12 | O=C1N=C(c2ccccc2)S/C1=C/c1ccc2ccccc2c1 [Compound 41] | – | 1000 nM | 106%
13 | Oc1c(Br)cc(Br)cc1/C=N/c1nc2ccccc2s1 [Compound 62] | – | 700 nM | 120%
14 | O=C(O)c1ccc(-c2ccc(/C=c3\sc4nc5ccccc5n4c3=O)o2)cc1 [Compound 28] | 90% | 700 nM | –
15 | COc1ccc(NC(=O)c2cc3cccc(N)c3cc2O)cc1 [Compound 114] | 85% | 300 nM | –
16 | COc1ccccc1/C=C1\N=C(c2ccccc2Cl)OC1=O [Compound 49] | – | 1000 nM | 115%
17 | O=C1CC(NNc2ccccc2)C(=O)N1c1cccc(Cl)c1 (centres unmarked) [Compound 22] | – | 900 nM | 102%

Row | SMILES | remaining activity at 1 µM [1] | IC50 [2] | remaining activity at 1 µM [1, 3]
18 | CC(=O)Nc1ccc(-c2cc3ccccn3c2)cc1 [Compound 78] | – | 900 nM | 93%
19 | O=[N+]([O-])c1ccc(CN2CCN(c3cccc(Cl)c3)CC2)o1 [Compound 80] | 95% | 500 nM | –
20 | O=C1C=CC(=O)N1c1ccc(Cl)cc1 [Compound 19] | 100% | 700 nM | –
21 | COc1ccc(/C=C2\C(=O)NC(=S)N(c3ccccc3)C2=O)cc1 [Compound 11] | – | 10000 nM | 95%
22 | Oc1c(Br)cc(Cl)cc1/C=N/c1ccccc1Br [Compound 58] | – | 800 nM | 102%
23 | COc1cc(N/C=C2/C(=O)NC(=S)N(c3cccc(C)c3)C2=O)cc(OC)c1 [Compound 16] | – | 1000 nM | 86%
24 | CC(=C\c1ccccc1)/C=C1/SC(=N)NC1=O [Compound 31] | – | 900 nM | 102%
25 | COc1ccc(CNc2cccc(N(C)C)c2)cc1 [Compound 106] | – | 900 nM | 80%
26 | Cc1cc(C)c(O)c(/N=C/c2c(O)ccc3ccccc23)c1 [Compound 65] | – | 1000 nM | 98%
27 | O=[N+]([O-])c1ccc(-c2ccc(/N=C/c3c(O)ccc4ccccc34)cc2)cc1 [Compound 60] | – | 1000 nM | 90%
28 | Cc1ccc2nc(-c3ccc(/N=C/c4ccc([N+](=O)[O-])s4)cc3)sc2c1 [Compound 72] | – | 800 nM | 124%
29 | Cc1c(C(=O)/C=C/c2cccs2)c2cc(O)ccc2n1C [Compound 76] | 110% | 400 nM | –
30 | COc1cc(/C=C2\SC(=O)NC2=O)ccc1OCc1ccc(Cl)cc1Cl [Compound 34] | – | 1000 nM | 123%
31 | CN1C(=O)/C(=C\c2ccc(-c3cccc([N+](=O)[O-])c3)o2)SC1=S [Compound 115] | 108% | 600 nM | –
32 | COc1cc(N/C=C2/C(=O)NC(=S)N(c3ccc(F)cc3)C2=O)cc(OC)c1 [Compound 17] | – | 700 nM | 106%
33 | Oc1c(Br)cc(Cl)cc1/C=N/c1ccccn1 [Compound 64] | – | 900 nM | 115%
34 | O=c1/c(=C/c2cccc([N+](=O)[O-])c2O)sc2nc3ccccc3n12 [Compound 51] | – | 700 nM | 80%
